Read-outs that look alike come from different tables or passages of the source. Marks after values point to notes of the source that are not given here.

For orientation: IC50 means the concentration needed to halve the response being measured. The term CC50 denotes the concentration giving 50% cytotoxicity. As a reminder, the inhibition is the relative decrease from the control value, in per cent.

Data set [1] concerns B. mandrillaris trophozoites. The data set can be described thus: Side-by-side dose response, trophozoite viability. The format is cell-based, Balamuthia mandrillaris. Particulars: Balamuthia mandrillaris, 72 h, read-out: IC50, B. mandrillaris trophozoites, 72 h. The method, then: (§1) B. mandrillaris trophozoites were seeded at 4,000 amoebae per well into opaque and clear-bottom 96-well plates (Corning). Homogenous populations of B. mandrillaris cysts generated by galactose induction were seeded at 4,000 amoebae per well into opaque 96-well plates. HFF-1 (fibroblast), H4 (glial), U87 (glial), HEK-293T (kidney), and Hep-G2 (liver) cells were seeded at 3,000 cells per well in opaque 96-well plates 24 h prior to addition of drug. Stocks of nitroxoline (Selleck Chemicals) were dissolved in 100% DMSO at 10 mM. Stocks of azithromycin (Selleck Chemicals), pentamidine isethionate (Selleck Chemicals), and miltefosine (Selleck Chemicals) were dissolved in water at 10 mM. Drug stocks were serially diluted in water to generate 12-point dilution series, which were then used to treat assay wells containing B. mandrillaris or human cells at final concentrations ranging from 0.39 µM to 400 µM in 100-µl total well volumes. Control wells were treated with vehicle (DMSO or water) at concentrations corresponding to the final vehicle concentrations in each drug dilution series. After incubation for 72 h, 50 µl of CTG was added to all assay wells. Luminescence was measured with a Promega GloMax-Multi+ plate reader 2, 4, and […] after CTG addition. All dose-response experiments were performed with at least three independent biological replicates. IC50 values were determined as previously described. To quantify encystment under treated and untreated conditions, amoebae in individual assay wells were resuspended thoroughly and the number of cysts and number of trophozoites in 10-µl samples were counted by the use of a hemocytometer (SKC, Inc.). Cysts and trophozoites are morphologically distinct, making them simple to distinguish with bright-field microscopy (example images are shown in Fig. S1 in the supplemental material). Encystment assays were performed with three independent biological replicates.

Data set [2] can be described thus: Cytotoxicity dose response, HFF-1. Type of data set: cell-based. Particulars: human, HFF-1 (fibroblast) cells, unit not given in Table S3, drug concentrations in µM, read-out: CC50 HFF-1 cell line. The method, then: as §1
A short description of data set [3]: Cytotoxicity, mean of all cell lines. Type of data set: cell-based. Particulars: human, U87, H4, HEK-293T, HFF-1 and Hep-G2 cell lines (mean of all), unit inferred. The protocol:
as §1

Data set [4] concerns B. mandrillaris. The experiment in a line: Encystment assay, counts of cysts and trophozoites. Type of data set: cell-based, Balamuthia mandrillaris. Particulars: 72 h of treatment with different drug concentrations. The protocol: as §1
Data set [5] relates to B. mandrillaris. Set-up: method as in PMID 15347743, PMID 23869955, PMID 16579814. Particulars: in vitro; cited from earlier work.
Data set [6] in a line: Cytotoxicity dose response, Hep-G2. The format is cell-based. Particulars: human, Hep-G2 (liver) cells, unit not given in Table S3, drug concentrations in µM, read-out: CC50 Hep-G2 cell line. The method, then:
as §1

Another data set relates to B. mandrillaris cysts. The data set can be described thus: Dose response, viability of preformed galactose-induced cysts. Particulars: 72 h. The format is cell-based, Balamuthia mandrillaris. The method, then: Following the findings of a previous study, encystment of B. mandrillaris was induced by galactose exposure ([74]). B. mandrillaris trophozoites were grown to log phase in axenic media, and galactose was added to reach a final concentration of 12% (vol/vol). Amoebae were cultured in the induction medium until trophozoites were no longer observed (approximately 10 days). Galactose-induced cysts transition back to trophozoites after approximately 3 days of incubation in galactose-free axenic medium. Therefore, all assays with cysts were completed in the induction medium. […] All incubation steps for B. mandrillaris growth were carried out at 37°C with 5% CO2.
as §1

Data set [7] is described as follows: Cytotoxicity dose response, HEK-293T. The format is cell-based. Particulars: human, HEK-293T (kidney) cells, unit not given in Table S3, drug concentrations in µM, read-out: CC50 HEK-293T cell line. The method, then: as §1
Data set [8] can be described thus: Cytotoxicity dose response, U87. The format is cell-based. Particulars: human, U87 (glial) cells, unit not given in Table S3, drug concentrations in µM, read-out: CC50 U87 cell line. The protocol:
as §1

Data set [9] in a line: Cytotoxicity dose response, H4. Particulars: human, H4 (glial) cells, unit not given in Table S3, drug concentrations in µM, read-out: CC50 H4 cell line. Type of data set: cell-based. The method, then: as §1
Data set [10] deals with B. mandrillaris trophozoites. The data set can be described thus: Drug combination dose matrices, trophozoite viability (EOHSA model). Type of data set: cell-based, Balamuthia mandrillaris. Particulars: 72 h. The method, then: Experiments measuring the effect of drug combinations were carried out similarly to the dose-response experiments described above. B. mandrillaris trophozoites were seeded into opaque 96-well plates (Corning) at a density of 4,000 amoebae per well and then treated with concentrations of nitroxoline that differed across the rows of each plate and with concentrations of either miltefosine or pentamidine isethionate that differed down the columns to generate 7-by-7 dose combination matrices. Final drug concentrations ranged from 0.5 to 10 µM, from 10 to 100 µM, and from 1 to 100 µM for nitroxoline, miltefosine, and pentamidine isethionate, respectively. After incubation with drug or vehicle was performed for 72 h, CTG was added to all assay wells and luminescence was measured with a Promega Glomax-Multi+ plate reader. The percent effect of each drug combination was calculated as the reduction in luminescence value relative to vehicle-only controls. The additive effect of drug combinations was assessed using the excess over highest single agent (EOHSA) model ([76], [77]). […] Drug combination experiments were performed with three independent replicates.

In data set [11] the test system is B. mandrillaris. The data set can be described thus: Recrudescence assay on HFF-1 monolayer after drug treatment. Type of data set: cell-based, Balamuthia mandrillaris.
The subject of data set [12] is HFF-1 human fibroblast cells. The experiment in a line: Secondary screening dose response, toxicity to HFF-1 cells. The format is cell-based. Particulars: Homo sapiens, HFF-1; 72 h; approximated from dose-response curves; read-out: HFF1 IC50.
Experimental: (§2) Secondary screening of hit compounds consisted of dose-response experiments to measure the toxicity of each compound to B. mandrillaris trophozoites, HFF-1 human fibroblast cells, and H4 human neuroglioma cells. Four 384-well plates were prepared prior to addition of drug as follows: one opaque plate (Corning) seeded with 3,000 HFF-1 cells per well in 60 µl complete media, one opaque plate seeded with 2,000 H4 cells per well in 60 µl complete media, one opaque plate containing 30 µl axenic media, and one clear plate (Corning) containing 30 µl axenic media. Opaque plates were used to measure the viability of trophozoites in the CTG assay, and clear plates were used for microscopic examination of cyst formation. HFF-1 and H4 plates were seeded 24 h prior to drug addition. The selected primary screen hits were added from 10 mM DMSO stocks into wells of all four test plates to reach final concentrations ranging from 0.06 µM to 30 µM (10 concentrations, 2-fold serial dilution). Negative-control wells received concentrations of DMSO corresponding to the amount of DMSO in each tested drug well (reaching a maximum of 0.3% DMSO). B. mandrillaris trophozoites were resuspended in axenic media and added to the plates containing drug dilutions in axenic media at a density of 3,000 amoebae per well in a final volume of 60 µl media. All plates were incubated for 72 h. Throughout the incubation period, the clear-bottom B. mandrillaris plate was monitored for large-scale changes to population encystment in response to drug treatment. After the 72-h incubation, 30 µl of CTG reagent was added to all wells of the opaque assay plates and luminescence was measured with a Promega GloMax-Multi+ plate reader at 2, 4, and 8 h after CTG addition.
Data set [13] deals with H4 human neuroglioma cells. The data set can be described thus: Secondary screening dose response, toxicity to H4 cells. The format is cell-based. Particulars: Homo sapiens; 72 h; approximated from dose-response curves.
For data set [14], the system named is B. mandrillaris trophozoites. The data set can be described thus: Secondary screening dose response, B. mandrillaris trophozoites. The format is cell-based, Balamuthia mandrillaris. Particulars: Balamuthia mandrillaris, 72 h, read-out: B. mandrillaris IC50.
Experimental: as §2
In data set [15] the test system is B. mandrillaris trophozoites. The experiment in a line: microbe, parasite or virus in culture. The format is cell-based, Balamuthia mandrillaris. Particulars: Balamuthia mandrillaris, 72 h.
[16] abbreviates: 28 µM for 72 h, then drug-free coculture with HFF-1, NRT = no recovery of trophozoites or host cell destruction observed through 28 days.
Where [17] appears, read: 56 µM for 72 h, then drug-free coculture with HFF-1, 28-day experiment.
Where [18] appears, read: Balamuthia mandrillaris, read-out: IC50, B. mandrillaris cysts, preformed cysts, 12% galactose induction medium, 72 h.
Where [19] appears, read: preformed cysts, 12% galactose induction medium, read-out: IC50, B. mandrillaris cysts.

In the case of `CC[C@H]1OC(=O)[C@H](C)[C@@H](O[C@H]2C[C@@](C)(OC)[C@@H](O)[C@H](C)O2)[C@H](C)[C@@H](O[C@@H]2O[C@H](C)C[C@H](N(C)C)[C@H]2O)[C@](C)(O)C[C@@H](C)CN(C)[C@H](C)[C@@H](O)[C@]1(C)O` [Azithromycin], the 50% inhibitory concentration (IC50) in data set [1] was found to be 244 µM; in the data set on B. mandrillaris cysts (Balamuthia mandrillaris, preformed cysts, 12% galactose induction medium, read-out: IC50, B. mandrillaris cysts), 788 µM. Further, the CC50 at 72 h in data set [2] came out at 116 µM; in [3], 94.4 µM; in data set [6], 86.4 µM; in data set [7], 120 µM; in data set [8], 55 µM; in data set [9] it was 95 µM. For the same compound, the “encystment response” value in the data set with B. mandrillaris [4] is recorded as “no substantial number of cysts was observed at any concentration”. Further, the “inhibition of amoebic growth” value in the data set with B. mandrillaris [5] was “amoebicidal or amoebistatic activity”.
Turning to `CCCCCCCCCCCCCCCCOP(=O)([O-])OCC[N+](C)(C)C` [Miltefosine], the results for the half-maximal inhibitory concentration (IC50) (in data set [1]; in the data set on B. mandrillaris cysts (setting [18]); in the data set with B. mandrillaris cysts (setting [19])) were 63.2 µM, 76.5 µM and 76.5 µM, respectively. Besides, the “Percent inhibition of B. mandrillaris viability” value in data set [10] (Fig S2A, miltefosine 10 µM alone) is recorded as -12%; in data set [10] (Fig S2A, miltefosine 30 µM alone), -13%; in data set [10] (Fig S2A, miltefosine 50 µM alone) it was 19%; in data set [10] (Fig S2A, miltefosine 60 µM alone), 44%; in data set [10] (Fig S2A, miltefosine 80 µM alone) it was 91%; in data set [10] (Fig S2A, miltefosine 100 µM alone), 96%. For the same compound, the CC50 at 72 h in data set [2] was found to be 67.1 µM; in data set [3] it was 49 µM; in data set [6] it was 66.1 µM; in data set [7], 68.8 µM; in [8] it was 34.7 µM; in data set [9], 8.4 µM. Besides, in the data set on B. mandrillaris [4], the “encystment response” value is given as “no substantial number of cysts was observed at any concentration”. The “inhibition of amoebic growth” value in the data set on B. mandrillaris [5] is listed as “amoebicidal or amoebistatic activity”. For the same compound, the “Mean no. of days for host cell clearance ± SE” value in the data set on B. mandrillaris [11] (setting [16]) was 1.5 ± 0.33 days; in the data set on B. mandrillaris [11] (setting [17]), 3.5 ± 2.64 days; in the data set on B. mandrillaris [11] (84 µM for 72 h, incomplete recovery of trophozoites and destruction of host cells on day 28) it was >28^b days; in the data set on B. mandrillaris [11] ([…] for 72 h, NRT = no recovery of trophozoites or host cell destruction observed through 28 days), “NRT^a”. For the same compound, the “concentration that completely eliminated B. mandrillaris populations” value with B. mandrillaris [11] (72 h treatment, no recovery after 28 days of coculture) is 112 µM.
As for `N=C(N)c1ccc(OCCCCCOc2ccc(C(=N)N)cc2)cc1` [Pentamidine isethionate], the IC50 is above 30 µM in data set [12]; 8 µM in data set [13]; 9.1 µM in [1]; 11 µM in data set [14]; 26.3 µM in the data set on B. mandrillaris cysts (setting [18]); 26.3 µM in the data set on B. mandrillaris cysts (setting [19]). In addition, the “Percent inhibition of B. mandrillaris viability” value in data set [10] (Fig S2B, pentamidine 1 µM alone) was -1%; in [10] (Fig S2B, pentamidine 5 µM alone) it was 32%; in [10] (Fig S2B, pentamidine 10 µM alone), 51%; in [10] (Fig S2B, pentamidine 20 µM alone), 62%; in data set [10] (Fig S2B, pentamidine 50 µM alone), 68%; in [10] (Fig S2B, pentamidine 100 µM alone), 82%. In addition, the cytotoxic concentration (CC50) at 72 h in data set [2] came to 23.4 µM; in data set [3] it was 11.1 µM; in [6], 0.7 µM; in data set [7], 4.8 µM; in data set [8], 20.7 µM; in data set [9], 5.7 µM. Also, in the data set with B. mandrillaris [4], the “encystment response” value is “increase in both the total number and the proportion of cysts”. In the data set on B. mandrillaris [5], the “inhibition of amoebic growth” value is given as “amoebicidal or amoebistatic activity”. Also, the “Mean no. of days for host cell clearance ± SE” value is reported as 1.33 ± 0.33 days in the data set with B. mandrillaris [11] (3.5 µM for 72 h, then drug-free coculture with HFF-1, 28-day experiment); 7 ± 1.15 days in the data set with B. mandrillaris [11] (7 µM for 72 h, then drug-free coculture with HFF-1, 28-day experiment); 13 ± 2.51 days in the data set with B. mandrillaris [11] (14 µM for 72 h, then drug-free coculture with HFF-1, 28-day experiment); 15.33 ± 2.56 days in the data set on B. mandrillaris [11] (setting [16]); 16 ± 2 days in the data set on B. mandrillaris [11] (setting [17]). The inhibition at 20 µM in data set [15] is 35%.

These data come from paper PMC6212833 (mBio, 2018).
